From US20250382570A1, “GENERATION AND APPLICATION OF FUNCTIONAL HUMAN ASTROCYTES FROM PLURIPOTENT STEM CELLS” (The Regents of the University of California, priority 2022, published 2025)

System: iAstrocytes
Test: Time-lapse imaging of phagocytosis of pHrodoRed-conjugated myelin by iAstrocytes
Format: cell-based, human
Details: imaging over 24 h
Method: FIGS. 3A-3B: (FIG. 3A) iAstrocytes are compatible for study with microglia co-cultures. Cultured iAstrocytes are subsequently incubated with iPSC-derived microglia (Abud et al., 2017). (FIG. 3B) iAstrocytes are labeled with GFAP and iPSC-derived microglia are labeled with Iba1 (light grey). The differentiation protocols for both microglia and astrocytes are serum-free and thus, make them compatible to study together without the confounds of serum activation of glia. Astrocytes phagocytose pHrodoRed-labeled myelin.
(FIGS. 4A-4C, FIG. 4A: 0 hour; FIG. 4B, 12 hours; and FIG. 4C, 24 hours). Phagocytosis can be visualized by pHrodoRed internalization which is absent at time zero (FIG. 4A). Phagocytosis of pHrodoRed-conjugated myelin is detected in iAstrocytes at 12 h (FIG. 4B), which gradually increases with time (24 h, FIG. 4C). FIG. 4D graphically depicts total red object area (y-axis) versus time in hours (x-axis).

TGFβ: Growth factor stated as necessary for quiescent astrocytes; inhibits myelin phagocytosis by iAstrocytes
effect on phagocytosis of myelin by iAstrocytes: inhibited
